Measurements from patent publication US7045343B2, “Sterilization indicator test packs” (3M Innovative Properties Company, priority 1998, dated 2006).

System: Bacillus stearothermophilus spores
Test: Spore outgrowth (color change) of indicators after hydrogen peroxide plasma sterilization
Type: cell-based
Details: 1–22 min diffusion
Description: Sterilization indicators for Examples 6–9 were prepared as described above with the exception that closure member 22 of the sterilization indicator was constructed of TYVEK™ high-density polyethylene fiber material, commercially available from E.I. du Pont de Nemours and Co., Wilmington, Del.
(§1) Sterilization indicators were made as described above with spores that had been coated with each of the chemicals and concentrations listed in Table 6. The indicators were placed in instrument trays and exposed to a hydrogen peroxide plasma sterilization procedure at 45–55° C. in a STERRAD™ 100SI GMP Sterilizer, obtained from Advanced Sterilization Products Co., Irvine, Calif. During the sterilization procedure a vacuum was drawn in the sterilization chamber for 5–6 minutes until the pressure was reduced to 300 mTorr. A 1.8 ml aliquot of an aqueous solution of 58–60% hydrogen peroxide was then injected into the sterilization chamber over a period of about 6 minutes, yielding an empty chamber concentration of […] hydrogen peroxide, and hydrogen peroxide vapor was allowed to diffuse throughout the chamber for 1–22 minutes at 6–10 Torr. A vacuum was then drawn, reducing the pressure to 500 mTorr and removing all detectable hydrogen peroxide vapor from the chamber.
After exposure to the sterilization procedure, the indicators were removed from the sterilizer and the inner containers containing the enzyme substrate and nutrient medium were crushed. The indicators were then incubated at 60° C. and examined for fluorescence every hour for 5 hours using a 3M™ ATTEST™ Model 190 Rapid Autoreader, commercially available from 3M Company, St. Paul, Minn. Additionally, spore growth, as indicated by a color change from purple to yellow, was determined visually after 168 hours of incubation.
The number of growth positive indicators detected after 168 hours of incubation is recorded in Table 6.
as §1, with “7.” for “6.”
as §1, with “8.” for “6.”, “chamber. […]” for “chamber.”

Decaglyceryl Decaoleate
NO. GROWTH POSITIVE 168 HR (Example 6, 10 mg/ml coating): 49
NO. GROWTH POSITIVE 168 HR (Example 7, 10 mg/ml coating): 49
NO. GROWTH POSITIVE 168 HR (Example 9, 5 mg/ml coating): 35
NO. GROWTH POSITIVE 168 HR (Example 9, 7.5 mg/ml coating): 35
NO. GROWTH POSITIVE 168 HR (Example 9, 10 mg/ml coating): 49
NO. GROWTH POSITIVE 168 HR (Example 9, 50 mg/ml coating): 21
NO. GROWTH POSITIVE 168 HR (Example 9, 100 mg/ml coating): 30

Decaglyceryl Monostearate
NO. GROWTH POSITIVE 168 HR (Example 7, 50 mg/ml coating): 59
